ChEMBL document CHEMBL1128803 (Bioorg Med Chem Lett, 1995)

Legend:
Format in all cases: protein assay
[1] = molecular target: Phosphodiesterase 4 (Mus musculus, UniProt Q8VBU5+Q3UEI1+O89084+Q01063); assay: Inhibition of [3H]rolipram binding to Phosphodiesterase 4 (PDE IV)
[2] = molecular target: Phosphodiesterase 4 (Homo sapiens, UniProt P27815+Q08499+Q07343+Q08493); assay: Inhibition of Phosphodiesterase 4
[3] = molecular target: Phosphodiesterase 3 (Homo sapiens) (UniProt Q14432+Q13370); assay: Inhibition of Phosphodiesterase 3 (PDE III) at 100 uM

Compound | IC50 [1] | IC50 [2] | inhibition [3]
COc1ccc(/C=C2\C(=O)N(C)c3ccc(Br)cc32)cc1OC1CC2CCC1C2 (stereo unspecified) | 57 µM | 3.6 µM | -7%
COc1ccc(C2CNC(=O)C2)cc1OC1CCCC1 (stereo unspecified) | – | – | 23%
COc1ccc(/C=C2/C(=O)N(C)c3ccc([N+](=O)[O-])cc32)cc1OC1CC2CCC1C2 (stereo unspecified) | 66 µM | 7.1 µM | 25%
COc1ccc(/C=C2\C(=O)N(C)c3ccc(Cl)cc32)cc1OC1CC2CCC1C2 (stereo unspecified) | 58 µM | 3.4 µM | -9%

Now from value to compound:

IC50 [1] | IC50 [2] | inhibition [3] | Compound
3.2 µM | 3.7 µM | – | COc1ccc(/C=C2\C(=O)Nc3ccccc32)cc1OC1CC2CCC1C2 (stereo unspecified)
4.6 µM | 0.48 µM | 42% | COc1ccc(/C=C2/C(=O)Nc3ccccc32)cc1OC1CC2CCC1C2 (stereo unspecified)
50 µM | 1.7 µM | 17% | COc1ccc(/C=C2\C(=O)Nc3ccc(Br)cc32)cc1OC1CC2CCC1C2 (stereo unspecified)
62 µM | 1.2 µM | 18% | COc1ccc(/C=C2\C(=O)Nc3ccc([N+](=O)[O-])cc32)cc1OC1CC2CCC1C2 (stereo unspecified)
